Like-named read-outs stand apart in the source and are kept apart here.
How the values were obtained:
[1] = system: rats with coca-5HT3 in the LHb; test: Cocaine IVSA (intravenous self-administration); assay type: in vivo, rat; conditions: Coca-5HT3 rats
coca-GlyR [2] = molecular target: T1, coca-GlyR (Homo sapiens, UniProt P23415+P36544, G175K/L141G/Y217F); test: [^3H]ASEM displacement, membranes of HEK293 cells expressing coca-GlyR; assay type: binding; conditions: for Ki: [^3H]ASEM competition, two-site fit
T1 construct: expressed in transfected cells; host or cells: HEK293 (ATCC CRL-1573), pcDNA3.1
Protocol: Cells were suspended in Tris-HCl 50 mM pH 7.4 supplemented with protease inhibitor cocktail (1:100, Sigma-Aldrich). HEK293 cells were disrupted with a 6 Polytron homogenizer (Kinematica). Homogenates were centrifuged at 48,000g (50 min, 4 °C) and washed twice in the same conditions to isolate the membrane fraction. Protein was quantified using the bicinchoninic acid method (Pierce). […] Free and membrane-bound radioligands were separated by rapid filtration of 500 μl aliquots in a 96-well plate harvester (Brandel) and washed with 2 ml of ice-cold Tris-HCl buffer. Microscint-20 scintillation liquid (65 μl per well, PerkinElmer) was added to the filter plates, plates were incubated overnight at room temperature and radioactivity counts were determined in the MicroBeta2 plate counter (PerkinElmer) with an efficiency of 41%. Two-site competition curves were fitted using Prism 10 (GraphPad). Ki values were calculated using the Cheng–Prusoff equation.

[3] = system: coca-GlyR in cultured hippocampal neurons; test: Current-clamp of cultured hippocampal neurons expressing coca-GlyR; assay type: cell-based, rat
[4] = estimated from self-administration; cited from earlier work
[5] = system: hippocampal neurons expressing GFP; test: Current-clamp of control cultured hippocampal neurons expressing GFP; assay type: cell-based, rat; conditions: for DmV MEAN: IRES-EGFP control, MEAN of cells
multiple nAChR subtypes = conditions: cited from earlier work
DAT = conditions: endogenous target; cited from earlier work
[6] = molecular target: α7–5HT3 mutant chimeric channels (Homo sapiens, UniProt P36544, Q79G); test: cell-based; assay type: cell-based, human α7 nAChR LBD, mouse 5HT3 IPD
[7] = molecular target: α7–5HT3 mutant chimeric channels (Homo sapiens, UniProt P36544, Q139V); test: cell-based; assay type: cell-based, human α7 nAChR LBD, mouse 5HT3 IPD
[8] = molecular target: α7–5HT3 mutant chimeric channels (Homo sapiens, UniProt P36544, S170H); test: cell-based; assay type: cell-based, human α7 nAChR LBD, mouse 5HT3 IPD
[9] = molecular target: α7–5HT3 mutant chimeric channels (Homo sapiens, UniProt P36544, L141S); test: cell-based; assay type: cell-based, human α7 nAChR LBD, mouse 5HT3 IPD
[10] = molecular target: α7–5HT3 mutant chimeric channels (Homo sapiens, UniProt P36544, S170F); test: cell-based; assay type: cell-based, human α7 nAChR LBD, mouse 5HT3 IPD
[11] = molecular target: α7–5HT3 mutant chimeric channels (Homo sapiens, UniProt P36544, S170L); test: cell-based; assay type: cell-based, human α7 nAChR LBD, mouse 5HT3 IPD
[12] = molecular target: α7–5HT3 mutant chimeric channels (Homo sapiens, UniProt P36544, L141F); test: cell-based; assay type: cell-based, human α7 nAChR LBD, mouse 5HT3 IPD
[13] = molecular target: α7–5HT3 mutant chimeric channels (Homo sapiens, UniProt P36544, S170T); test: cell-based; assay type: cell-based, human α7 nAChR LBD, mouse 5HT3 IPD
coca-GlyR [14] = molecular target: T1, coca-GlyR; test: Whole-cell voltage-clamp in HEK293 cells, coca-GlyR; assay type: cell-based; conditions: transfected HEK293
Protocol: Channel mutants and agonists were further characterized in whole-cell voltage-clamp experiments performed on HEK293 cells. At passage 44–48, cells were plated at low density (1 × 10^3 per cm^2) on poly-D-lysine-coated glass coverslips, then transfected in 10 cm^2 wells using the Fugene 6 transfection reagent (Roche) with DNA plasmids containing both an ion channel cDNA (pcDNA3.1, 2 µg per well) and cDNA for GFP (pCMV, 0.1 μg per well), followed by replacement of the medium after 3 h. Recordings were made 24–72 h after transfection.
Electrophysiological recordings were performed in whole-cell voltage-clamp mode, on an inverted fluorescence microscope (Olympus IX-51) using pClamp software and a […] amplifier (Molecular Devices). Electrophysiological data was filtered at 4 kHz, digitized at 10 kHz using a Digidata 1400 interface (Molecular Devices), recorded on a PC (Dell) and analysed using custom MATLAB software (MathWorks). Solutions were delivered from a gravity fed perfusion system through a capillary tube placed approximately […] from the recorded cell using an eight-way manifold pinch valve system (Nanion), which was controlled from the acquisition software. This allowed for up to seven concentrations of agonist to be tested. […]

T1 sequence (P36544+P23415 fused P36544:L141G/P36544:G175K/P36544:Y217F): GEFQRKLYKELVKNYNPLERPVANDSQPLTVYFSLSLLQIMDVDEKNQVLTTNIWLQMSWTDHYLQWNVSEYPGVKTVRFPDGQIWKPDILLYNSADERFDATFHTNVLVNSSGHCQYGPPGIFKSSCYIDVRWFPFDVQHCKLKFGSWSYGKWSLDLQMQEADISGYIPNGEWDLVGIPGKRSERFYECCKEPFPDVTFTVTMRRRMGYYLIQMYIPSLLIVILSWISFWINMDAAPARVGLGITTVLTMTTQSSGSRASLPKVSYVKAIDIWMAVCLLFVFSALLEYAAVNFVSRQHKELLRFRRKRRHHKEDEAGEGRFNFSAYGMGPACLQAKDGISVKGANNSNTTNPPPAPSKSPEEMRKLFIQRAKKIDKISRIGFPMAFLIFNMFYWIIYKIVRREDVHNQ
Sequence of α7–5HT3 mutant chimeric channels (Homo sapiens, UniProt P36544, Q79G) (P36544 23-224 Q79G): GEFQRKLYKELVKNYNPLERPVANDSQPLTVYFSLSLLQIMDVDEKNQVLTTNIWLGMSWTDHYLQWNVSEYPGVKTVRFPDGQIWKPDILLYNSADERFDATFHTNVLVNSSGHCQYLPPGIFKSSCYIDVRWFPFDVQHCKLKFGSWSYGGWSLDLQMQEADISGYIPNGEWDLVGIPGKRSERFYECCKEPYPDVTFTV
Sequence of α7–5HT3 mutant chimeric channels (Homo sapiens, UniProt P36544, Q79G) (P23979 242-489, further chain): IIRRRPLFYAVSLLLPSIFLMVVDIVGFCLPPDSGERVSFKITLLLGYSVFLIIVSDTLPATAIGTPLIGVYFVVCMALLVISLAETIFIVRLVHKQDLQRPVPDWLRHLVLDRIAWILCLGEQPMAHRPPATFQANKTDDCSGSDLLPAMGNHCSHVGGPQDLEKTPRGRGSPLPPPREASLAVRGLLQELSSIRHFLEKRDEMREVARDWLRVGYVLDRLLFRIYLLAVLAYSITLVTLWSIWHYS
Sequence of α7–5HT3 mutant chimeric channels (Homo sapiens, UniProt P36544, L141S) (P36544 23-224 L141S): as the sequence (P36544 23-224 Q79G) above, with G57Q, L119S counted along it
Sequence of α7–5HT3 mutant chimeric channels (Homo sapiens, UniProt P36544, L141S) (P23979 242-489, further chain): as the sequence (P23979 242-489, further chain) above
Sequence of α7–5HT3 mutant chimeric channels (Homo sapiens, UniProt P36544, Q139V) (P23979 242-489): as the sequence (P23979 242-489, further chain) above
Sequence of α7–5HT3 mutant chimeric channels (Homo sapiens, UniProt P36544, Q139V) (P36544 23-224 Q139V): as the sequence (P36544 23-224 Q79G) above, with G57Q, Q117V counted along it
Sequence of α7–5HT3 mutant chimeric channels (Homo sapiens, UniProt P36544, L141F) (P36544 23-224 L141F): as the sequence (P36544 23-224 Q79G) above, with G57Q, L119F counted along it
Sequence of α7–5HT3 mutant chimeric channels (Homo sapiens, UniProt P36544, L141F) (P23979 242-489, further chain): as the sequence (P23979 242-489, further chain) above
Sequence of α7–5HT3 mutant chimeric channels (Homo sapiens, UniProt P36544, S170F) (P36544 23-224 S170F): as the sequence (P36544 23-224 Q79G) above, with G57Q, S148F counted along it
Sequence of α7–5HT3 mutant chimeric channels (Homo sapiens, UniProt P36544, S170F) (P23979 242-489, further chain): as the sequence (P23979 242-489, further chain) above
Sequence of α7–5HT3 mutant chimeric channels (Homo sapiens, UniProt P36544, S170T) (P36544 23-224 S170T): as the sequence (P36544 23-224 Q79G) above, with G57Q, S148T counted along it
Sequence of α7–5HT3 mutant chimeric channels (Homo sapiens, UniProt P36544, S170T) (P23979 242-489, further chain): as the sequence (P23979 242-489, further chain) above
Sequence of α7–5HT3 mutant chimeric channels (Homo sapiens, UniProt P36544, S170L) (P23979 242-489): as the sequence (P23979 242-489, further chain) above
Sequence of α7–5HT3 mutant chimeric channels (Homo sapiens, UniProt P36544, S170L) (P36544 23-224 S170L): as the sequence (P36544 23-224 Q79G) above, with G57Q, S148L counted along it
Sequence of α7–5HT3 mutant chimeric channels (Homo sapiens, UniProt P36544, S170H) (P23979 242-489): as the sequence (P23979 242-489, further chain) above
Sequence of α7–5HT3 mutant chimeric channels (Homo sapiens, UniProt P36544, S170H) (P36544 23-224 S170H): as the sequence (P36544 23-224 Q79G) above, with G57Q, S148H counted along it

Question: Which “Sheet 3g, Mean (per-rat counts at each dose)” value ([1]; Dose 0.0625) does the source give for COC(=O)[C@H]1[C@@H](OC(=O)c2ccccc2)C[C@@H]2CC[C@H]1N2C [cocaine] here?
Answer: The value was 32.0909.

Question: And the “Sheet 3h, Mean (sheet 3g count x dose, intake)” value (“Sheet 3h, Mean” below) ([1]; Dose 0.0625)?
Answer: Its value is 2.006.

Question: What about the “Sheet 3g, Mean (per-rat counts at each dose)” value ([1]; Dose 0.125) of the same compound?
Answer: Its value is 43.1818.

Question: What about the “Sheet 3h, Mean” value ([1]; Dose 0.125) of the same compound?
Answer: Its value is 5.398.

Question: What about the “Sheet 3g, Mean (per-rat counts at each dose)” value ([1]; Dose 0.25) of the same compound?
Answer: The value was 30.2727.

Question: And the “Sheet 3h, Mean” value ([1]; Dose 0.25)?
Answer: The value was 7.568.

Question: And the “Sheet 3g, Mean (per-rat counts at each dose)” value ([1]; Dose 0.5)?
Answer: Its value is 19.0909.

Question: And the “Sheet 3h, Mean” value ([1]; Dose 0.5)?
Answer: Its value is 9.545.

Question: And the “Sheet 3g, Mean (per-rat counts at each dose)” value ([1]; Dose 1)?
Answer: Its value is 10.8182.

Question: And the “Sheet 3h, Mean” value ([1]; Dose 1)?
Answer: Its value is 10.8182.

Question: What about the “binding to coca-GlyR” value (coca-GlyR [2]) of the same compound?
Answer: The value was “biphasic manner”.

Question: What about the Ki (coca-GlyR [2]; KiH) of the same compound?
Answer: Its Ki is 0.014 ± 0.01 nM.

Question: What about the Ki (coca-GlyR [2]; KiL) of the same compound?
Answer: Its Ki is 850 ± 500 nM.

Question: What about the high-affinity binding sites (coca-GlyR [2]; biphasic competition curve, [^3H]ASEM) of the same compound?
Answer: Its high-affinity binding sites is 37.9 ± 0.5%.

Question: What about the rheobase ([3]; coca-GlyR neurons, 10 uM, single cells) of the same compound?
Answer: Its rheobase is 200 pA.

Question: And the “firing in response to current injection” value ([3]; neurons with coca-GlyR)?
Answer: The value was “inhibited”.

Question: And the membrane input resistance ([3]; neurons with coca-GlyR)?
Answer: Its membrane input resistance is “dose-dependent reduction”.

Question: What about the rheobase ([3]; neurons with coca-GlyR, cocaine 3 and 10 µM) of the same compound?
Answer: Its rheobase is “increased”.

Question: What about the brain cocaine concentrations [4] of the same compound?
Answer: The brain cocaine concentrations was 2.5 to 20 µM.

Question: What about the “depolarization of control neurons” value ([5]; GFP control neurons) of the same compound?
Answer: Its value is “did not affect control neurons”.

Question: And the “DmV MEAN” value ([5]; cocaine 0.1 uM)?
Answer: The value was -0.03 mV.

Question: And the “DmV MEAN” value ([5]; cocaine 0.3 uM)?
Answer: Its value is -0.2411 mV.

Question: What about the “DmV MEAN” value ([5]; cocaine 1 uM) of the same compound?
Answer: Its value is 0.04889 mV.

Question: What about the “DmV MEAN” value ([5]; cocaine 3 uM) of the same compound?
Answer: Its value is 0.31 mV.

Question: And the “DmV MEAN” value ([5]; cocaine 10 uM)?
Answer: Its value is -0.01556 mV.

Question: What about the “DmV MEAN” value ([5]; cocaine 30 uM) of the same compound?
Answer: The value was -0.4375 mV.

Question: And the “activity at nAChR subtypes” value (multiple nAChR subtypes)?
Answer: The value was “low-affinity antagonist”.

Question: And the “range of cocaine affinities for DAT” value (DAT)?
Answer: Its value is 0.23 to 2.0 µM.

Question: And the EC50 [6]?
Answer: Its EC50 is > 30 µM.

Question: What about the EC50 ([6]; read-out: EC50 at a7 5HT3 Q79G, sheet 1d, single determinations) of the same compound?
Answer: The EC50 was > 30 µM.

Question: And the EC50 [7]?
Answer: The EC50 was > 30 µM.

Question: And the EC50 ([7]; read-out: EC50 at a7 5HT3 Q139V, Avg, sheet 1d, Avg)?
Answer: The EC50 was > 30 µM.

Question: What about the EC50 [8] of the same compound?
Answer: The EC50 was > 30 µM.

Question: What about the EC50 [9] of the same compound?
Answer: The EC50 was > 30 µM.

Question: And the EC50 ([9]; read-out: EC50 at α75HT3 L141S, sheet 1d, single determinations)?
Answer: The EC50 was > 30 µM.

Question: What about the EC50 [10] of the same compound?
Answer: The EC50 was > 30 µM.

Question: And the EC50 [11]?
Answer: Its EC50 is 6 µM.

Question: And the EC50 [12]?
Answer: The EC50 was > 30 µM.

Question: And the EC50 ([12]; read-out: EC50 at α75HT3 L141F, sheet 1d, single determinations)?
Answer: The EC50 was > 30 µM.

Question: What about the EC50 [13] of the same compound?
Answer: The EC50 was > 30 µM.

Question: What about the “currents from coca-GlyR” value (coca-GlyR [14]) of the same compound?
Answer: The value was “large, sustained currents”.

Source: PMC12527922, “Cocaine chemogenetics blunts drug-seeking by synthetic physiology” (Nature, 2025)
